Experimental data published in US11078215B2, “Crystalline forms of lorlatinib maleate” (Pfizer Inc., priority 2016, dated 2021).
Counter-ions that a name gives are not always drawn.

Columns and labels:
[1] = Physical stability of Form 1 in excipient mixtures and tablets at 50° C./75% RH, PXRD; assay type: physicochemical; details: for Output Solid Form: 1 week
Experimental: Binary and tertiary mixtures of Form 1 with various excipients were stored at 50° C./75% RH and solid form changes were monitored using PXRD.

[2] = Solid-state physical stability of Form 1 API at temperature/% RH, form checked by PXRD; assay type: physicochemical; details: for Solid Form (accelerated stability, PXRD): API
Source text: The physical stability of anhydrous lorlatinib maleate (Form 1) API was investigated at a variety of temperatures and percent relative humidities (% RH). […]

[3] = Slurry experiments, thermodynamic stability of anhydrous lorlatinib maleate (Form 1); assay type: physicochemical
Experimental: The thermodynamic stability of anhydrous lorlatinib maleate (Form 1) and lorlatinib maleate hydrate (Form 2) was evaluated employing slurry experiments under a range of water activity and temperature conditions. Suspensions of Form 1 were equilibrated for two weeks in acetonitrile/water and methanol/water solvent systems with water activities (Aw) in the range of 0.1 to 0.9, at three different temperatures: 5° C., room temperature and 40° C. After 2 weeks, the solids in equilibrium were isolated and solid form was evaluated by PXRD.
Even a minimal amount of water (Aw=0.1) was sufficient to cause conversion of Form 1 to Form 2.

[4] = Physical stability of Form 1 in excipient mixtures and tablets at 50° C./75% RH, PXRD; assay type: physicochemical; details: 2 weeks
[5] = Physical stability of Form 1 drug product vs. acetic acid solvate drug product
Source text: The physical stabilities of Form 1 and lorlatinib acetic acid solvate as drug product were investigated under a variety of conditions.

[6] = Slurry experiments, thermodynamic stability of anhydrous lorlatinib maleate (Form 1); assay type: physicochemical; details: 2 weeks

- Output Solid Form ([1]; binary mixture with stearic acid): Form 2
- Solid form changes by PXRD (summary) ([1]; mixtures containing magnesium stearate): form changes after 2 weeks
- Solid form changes by PXRD (summary) ([1]; mixtures containing stearic acid): form changes after 1 week
- Output Solid Form ([1]; tertiary mixture with stearic acid, lactose): Form 2
- Output Solid Form ([1]; tertiary mixture with stearic acid, mannitol): Form 2
- Stability with respect to lorlatinib maleate hydrate (Form 2) [2]: meta-stable
- Solid Form (accelerated stability, PXRD) ([2]; 40° C./75% RH without desiccation, 3 months): nearly complete conversion to Form 2
- Solid Form (accelerated stability, PXRD) ([2]; 75% RH, ambient temperature, 6 months, listed as Form 1): full conversion to Form 2
- Solid Form (accelerated stability, PXRD) ([2]; 75% RH, ambient temperature, 6 months, listed as anhydrous lorlatinib maleate Form 1): Form 2
- Solid Form (accelerated stability, PXRD) ([2]; 90% RH, ambient temperature, 6 months, listed as Form 1): full conversion to Form 2
- Solid Form (accelerated stability, PXRD) ([2]; 90% RH, ambient temperature, 6 months, listed as anhydrous lorlatinib maleate Form 1): Form 2
- Slurry output, solid form by PXRD ([3]; acetonitrile, Aw 0, 5° C., 2 weeks): Form 1
- Slurry output, solid form by PXRD ([3]; acetonitrile, Aw 0, 40° C., 2 weeks): Form 1
- Slurry output, solid form by PXRD ([3]; acetonitrile/water, Aw 0.1, 5° C., 2 weeks): Form 2
- Slurry output, solid form by PXRD ([3]; acetonitrile/water, Aw 0.1, 40° C., 2 weeks): Form 2
- Slurry output, solid form by PXRD ([3]; acetonitrile/water, Aw 0.1, RT, 2 weeks): Form 2
- Slurry output, solid form by PXRD ([3]; acetonitrile/water, Aw 0.3, 5° C., 2 weeks): Form 2
- Slurry output, solid form by PXRD ([3]; acetonitrile/water, Aw 0.3, 40° C., 2 weeks): Form 2
- Slurry output, solid form by PXRD ([3]; acetonitrile/water, Aw 0.3, RT, 2 weeks): Form 2
- Slurry output, solid form by PXRD ([3]; acetonitrile/water, Aw 0.5, 5° C., 2 weeks): Form 2
- Slurry output, solid form by PXRD ([3]; acetonitrile/water, Aw 0.5, 40° C., 2 weeks): Form 2
- Slurry output, solid form by PXRD ([3]; acetonitrile/water, Aw 0.5, RT, 2 weeks): Form 2
- Slurry output, solid form by PXRD ([3]; acetonitrile/water, Aw 0.75, 5° C., 2 weeks): Form 2
- Slurry output, solid form by PXRD ([3]; acetonitrile/water, Aw 0.75, 40° C., 2 weeks): Form 2
- Slurry output, solid form by PXRD ([3]; acetonitrile/water, Aw 0.75, RT, 2 weeks): Form 2
- Slurry output, solid form by PXRD ([3]; acetonitrile/water, Aw 0.9, 5° C., 2 weeks): Form 2
- Slurry output, solid form by PXRD ([3]; acetonitrile/water, Aw 0.9, 40° C., 2 weeks): Form 2
- Slurry output, solid form by PXRD ([3]; acetonitrile/water, Aw 0.9, RT, 2 weeks): Form 2
- Slurry output, solid form by PXRD ([3]; methanol, Aw 0, 5° C., 2 weeks): Form 1
- Slurry output, solid form by PXRD ([3]; methanol, Aw 0, RT, 2 weeks): Form 1
- Slurry output, solid form by PXRD ([3]; methanol/water, Aw 0.1, 5° C., 2 weeks): Form 2
- Slurry output, solid form by PXRD ([3]; methanol/water, Aw 0.1, 40° C., 2 weeks): solvate
- Slurry output, solid form by PXRD ([3]; methanol/water, Aw 0.1, 40° C., 2 weeks, listed as Form 1): solvated material
- Slurry output, solid form by PXRD ([3]; methanol/water, Aw 0.1, RT, 2 weeks): Form 2
- Slurry output, solid form by PXRD ([3]; methanol/water, Aw 0.3, 5° C., 2 weeks): Form 2
- Slurry output, solid form by PXRD ([3]; methanol/water, Aw 0.3, 40° C., 2 weeks): solvate
- Slurry output, solid form by PXRD ([3]; methanol/water, Aw 0.3, 40° C., 2 weeks, listed as Form 1): solvated material
- Slurry output, solid form by PXRD ([3]; methanol/water, Aw 0.3, RT, 2 weeks): Form 2
- Slurry output, solid form by PXRD ([3]; methanol/water, Aw 0.5, 5° C., 2 weeks): Form 2
- Slurry output, solid form by PXRD ([3]; methanol/water, Aw 0.5, 40° C., 2 weeks): Form 2
- Slurry output, solid form by PXRD ([3]; methanol/water, Aw 0.5, RT, 2 weeks): Form 2
- Slurry output, solid form by PXRD ([3]; methanol/water, Aw 0.75, 5° C., 2 weeks): Form 2
- Slurry output, solid form by PXRD ([3]; methanol/water, Aw 0.75, 40° C., 2 weeks): Form 2
- Slurry output, solid form by PXRD ([3]; methanol/water, Aw 0.75, RT, 2 weeks): Form 2
- Slurry output, solid form by PXRD ([3]; methanol/water, Aw 0.9, 5° C., 2 weeks): Form 2
- Slurry output, solid form by PXRD ([3]; methanol/water, Aw 0.9, 40° C., 2 weeks): Form 2
- Slurry output, solid form by PXRD ([3]; methanol/water, Aw 0.9, RT, 2 weeks): Form 2
- Output Solid Form ([4]; tablet with DCP, magnesium stearate, Explotab): Form 1
- Output Solid Form ([4]; tablet with DCP, magnesium stearate, Polyplasdone XL): Form 1
- Output Solid Form ([4]; tablet with DCP, stearic acid, Explotab): Form 1
- Output Solid Form ([4]; tablet with DCP, stearic acid, Polyplasdone XL): Form 1
- Output Solid Form ([4]; tablet with mannitol, stearic acid, Polyplasdone XL): Form 1
- Physical stability of representative drug product formulation relative to the acetic acid solvate of lorlatinib free base ([5]; drug product formulation): superior physical stability
- impurity (solid phase impurity), physical stability of drug product ([5]; 50° C./75% RH, 2 weeks): ~10% impurity
- impurity (solid phase impurity), physical stability of drug product ([5]; 70° C./10% RH, 3 weeks): ~10% impurity
- impurity (solid phase impurity), physical stability of drug product ([5]; 70° C./40% RH, 2 weeks): ~10% impurity
- impurity (solid phase impurity), physical stability of drug product ([5]; 70° C./75% RH, 1 week): ~10% impurity
- Slurry output, solid form by PXRD ([6]; acetonitrile, Aw 0, RT): Form 1
- Slurry output, solid form by PXRD ([6]; methanol, Aw 0, 40° C.): Form 1
SMILES: C[C@H]1Oc2cc(cnc2N)-c2c(nn(C)c2C#N)CN(C)C(=O)c2ccc(F)cc21 [anhydrous lorlatinib maleate (Form 1), Anhydrous (10R)-7-amino-12-fluoro-2,10,16-trimethyl-15-oxo-10,15,16,17-tetrahydro-2H-8,4-(metheno)pyrazolo[4,3-h][2,5,11]benzoxadiazacyclotetradecine-3-carbonitrile (PF-06463922) Maleate (Form 1)]
- Solid Form (accelerated stability, PXRD) ([2]; 25° C./60% RH without desiccation, 3 months): Multiple new PXRD peaks were observed, which were consistent with Form 2
- Form conversion in slurry (summary) ([3]; anhydrous conditions (Aw=0)): no conversion to the hydrate Form 2 detected
- Form conversion in slurry (summary) ([3]; water activities 0.1 to 0.9, temperatures from 5° C. to 40° C., 2 weeks): converts to the thermodynamically more stable lorlatinib maleate hydrate (Form 2)
